The subject of data set [1] is animals. The note with it: in vivo; cited from earlier work.
The nature of data set [2]: pharmacokinetic parameters of VPA in dogs after oral administration of the ester or DEPAKINE;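 further: comparator arm received VPA orally as the free acid rather than as the ester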
It counts as in vivo, dog. Particulars: for ka, absorption rate constant / CL/F / AUC / Vd/F / k el / half-life / Tmax: VPA, 400 mg; for CL/F / AUC / Vd/F / k el / half-life / Tmax: dog, in vivo, po; for AUC: read-out: AUC, area under the plasma conc. vs. time curve (row head is drawing 3) (converted); for Vd/F: read-out: V; for k el: read-out: ke, elimination rate constant (converted); for half-life: read-out: t1/2 elimin. (converted); for Tmax: read-out: t max obs, observed time to reach peak plasma concentration (converted).

A short description of data set [3]: stability of the ester in plasma in vitro. Format: in vitro ADME. On the procedure:
(§1) The ester was quite stable at -20° C. or after HCl was added to the plasma mixture. […] All these half-life time calculations were done by assuming a first order linear kinetics of hydrolysis of the ester to valproic acid.

The subject of data set [4] is rats. Description: toxicity after oral administration to rats. Format: in vivo, rat. The note with it: 20 and 100 mg/kg.
Data set [5] is described as follows: VPA plasma levels after oral administration of the ester to five dogs. Format: in vivo, dog. Set-up: key: --: Undetectable concentration of VPA. On the procedure:
Concentration of VPA after oral administration of the ester of this invention to five dogs are presented in the following Table I. Each plasma sample was assayed three times and the results presented in Table I are mean ±S.D. of these analyses.

Data set [6] in a line: expected VPA plasma concentration after single oral administration of the ester to man. Format: in vivo. The text has this:
Based on the prolonged absorption of VPA after administration of the ester, this new prodrug might be administered to epileptic patients twice or even once a day.

Data set [7] can be described thus: stability of the ester in 0.01 N HCl. It counts as physicochemical. The note with it: room temperature, first order kinetics, read-out: stability half-life time in 0.01 N HCl (converted). On the procedure: as §1
The conditions of data set [8]: oral; cited from earlier work.
For data set [9] the following is noted: combination therapy with other anti-epileptic drugs; cited from earlier work.
The conditions of data set [10]: physiological pH; cited from earlier work.

For orientation: CL/F means the apparent clearance, not corrected for the fraction that reaches the circulation. What is called AUC is concentration integrated over time.

Read-outs that look alike come from different tables or passages of the source.

With `CCCC(CCC)COC(=O)C(CCC)CCC` [2-propylpentanol-di-n-propyl acetate], in [1], the toxicity to animals entry is listed as “very toxic to animals”.

On to `CCCC(CCC)C(=O)OC(C)OC(=O)OCC` (stereo not drawn) [1'-ethoxycarbonyloxyethyl ester, 1'-ethoxycarbonyloxyethyl ester of valproic acid], for which the “ka, absorption rate constant” value in [2] (dog 1, oral) was found to be 0.015 min⁻¹; in data set [2] (dog 2, oral), 0.02 min⁻¹; in data set [2] (dog 3, oral), 0.02 min⁻¹; in data set [2] (dog 4, oral) it was 0.01 min⁻¹; in data set [2] (dog 5, oral), 0.04 min⁻¹. For the same compound, the apparent clearance CL/F in data set [2] (dog 1) worked out at 66.7 mL/min; in data set [2] (dog 2) it was 34.8 mL/min; in [2] (dog 3) it was 61.5 mL/min; in data set [2] (dog 4), 56.5 mL/min; in data set [2] (dog 5), 42.7 mL/min. For the same compound, the AUC in data set [2] (dog 1, oral) was 76800 ng·h/mL; in data set [2] (dog 2, oral), 167000 ng·h/mL; in data set [2] (dog 3, oral), 67700 ng·h/mL; in [2] (dog 4, oral), 81200 ng·h/mL; in [2] (dog 5, oral), 142000 ng·h/mL. The Vd/F in [2] (dog 1, oral) came out at 12.1 L; in data set [2] (dog 2, oral), 5.35 L; in data set [2] (dog 3, oral), 5.08 L; in [2] (dog 4, oral) it was 8.69 L; in data set [2] (dog 5, oral), 7.24 L. Further, the k el was 9.17e-05 s⁻¹ in [2] (dog 1, oral); 0.000108 s⁻¹ in [2] (dog 2, oral); 0.00202 s⁻¹ in data set [2] (dog 3, oral); 0.000108 s⁻¹ in [2] (dog 4, oral). For the same compound, the half-life in data set [2] (dog 1, oral) is 2.1 h; in data set [2] (dog 2, oral), 1.78 h; in data set [2] (dog 3, oral), 0.95 h; in data set [2] (dog 4, oral), 1.78 h; in data set [3] (plasma in vitro, room temperature, first order kinetics), 2.23 h; in [7] it was 32.4 h. For the same compound, the Tmax in data set [2] (dog 1, oral) is 2 h; in data set [2] (dog 2, oral), 1.4 h; in data set [2] (dog 3, oral), 1.17 h; in [2] (dog 4, oral) it was 2.5 h; in data set [2] (dog 5, oral), 1.2 h. In addition, the “VPA plasma levels between 30 to 240 minutes” value in data set [2] (dogs, after ester administration) is on record as “More or less constant plasma levels”. The “difference between the maximal and minimal steady state levels” value in data set [2] (dogs, between 30 to 240 minutes) was “less than a two-fold difference”. Further, the “distribution and elimination parameters of VPA compared between the two drug products” value in [2] (dogs, exception: V in dog number 1) is reported as “not significantly different”. In addition, the “absorption rate of VPA compared with free acid” value in [2] (dogs, oral, ester versus free acid) is recorded as “two to five times slower”. Also, the “stability at -20° C. or after HCl was added to the plasma mixture” value in data set [3] (-20° C. or HCl added to plasma mixture) was “quite stable”. Besides, the “transformation to valproic acid in plasma” value in data set [3] (plasma in vitro, room temperature) is reported as “transformed to valproic acid”. Besides, the toxicity entry in data set [4] was “did not show any toxicity”. The VPA plasma levels entry in [5] (dog 1, 15 min) is “--”; in data set [5] (dog 1, 660 min), “--”; in [5] (dog 1, 720 min), “--”; in data set [5] (dog 1, 780 min) it was “--”; in data set [5] (dog 1, 840 min), “--”; in [5] (dog 1, 900 min) it was “--”. For the same compound, the VPA plasma levels result in [5] (dog 2, 660 min) is given as “--”; in [5] (dog 2, 840 min) it was “--”; in [5] (dog 2, 900 min), “--”; in data set [5] (dog 3, 720 min), “--”; in data set [5] (dog 3, 780 min), “--”; in data set [5] (dog 3, 840 min), “--”. For the same compound, the VPA plasma levels result is given as “--” in data set [5] (dog 3, 900 min); “--” in [5] (dog 4, 45 min); “--” in data set [5] (dog 4, 60 min); “--” in data set [5] (dog 4, 75 min); “--” in [5] (dog 4, 210 min); “--” in data set [5] (dog 4, 660 min). Moreover, the VPA plasma levels result is on record as “--” in data set [5] (dog 4, 720 min); “--” in data set [5] (dog 4, 780 min); “--” in data set [5] (dog 4, 840 min); “--” in data set [5] (dog 4, 900 min); “--” in data set [5] (dog 5, 30 min); “--” in [5] (dog 5, 660 min). Further, the VPA plasma levels result in [5] (dog 5, 780 min) was “--”; in data set [5] (dog 5, 840 min), “--”; in data set [5] (dog 5, 900 min), “--”. In data set [6], the “expected VPA concentration profile in man” value is reported as “prolonged pseudo steady state concentration”.

Take `CCCC(CCC)C(N)=O` [VPD, Valpromide-dipropylacetamide]: in data set [8], the “absorption compared with VPA” value is on record as “slower absorption than VPA” and the bioavailability result is listed as “low bioavailability”.

Take `CCCC(CCC)C(=O)O` [VPA, di-n-propylacetic acid]: the “half life time in combination therapy” value in [9] is on record as “even shorter than in a single therapy”. In data set [10], the “ionization of carboxylic group” value is on record as “significantly ionized”.

Values taken from patent publication US4595695A, “1'-ethoxycarbonyloxyethyl ester of valproic acid, its preparation and pharmaceutical compositions containing it” (Teva Pharmaceutical Industries Ltd., priority 1983, dated 1986).
